This is an account of results in paper PMC261875, “Biochemical Characterization of DNA Damage Checkpoint Complexes: Clamp Loader and Clamp Complexes with Specificity for 5′ Recessed DNA” (PLoS Biology, 2003).

The test system of assay [1] is T1, RFC (replication factor C).
T1 construct: gene RFC1
The assay is described as follows: bead pull-down of clamp-clamp loader-DNA ternary complex, Western blot. The format is binding. Conditions: 1 mM ATPγS, 7 mM MgCl2, pH 7.5, 30 °C; PCNA clamp, human RPA, 3' recessed primer-template DNA; nonhydrolyzable ATP analog. Background: A western blot detects proteins with antibodies after separation by electrophoresis.

The subject of assay [2] is T2, RSR (Rad17–Rfc2–Rfc3–Rfc4–Rfc5) complex.
T2 construct: untagged
Described as above. In kind it is binding. Conditions: 1 mM ATPγS, 7 mM MgCl2, pH 7.5, 30 °C; RHR clamp, human RPA, 5' recessed primer-template DNA; nonhydrolyzable ATP analog.

Molecules are shown by their SMILES.

T2 sequence (O75943 whole entry): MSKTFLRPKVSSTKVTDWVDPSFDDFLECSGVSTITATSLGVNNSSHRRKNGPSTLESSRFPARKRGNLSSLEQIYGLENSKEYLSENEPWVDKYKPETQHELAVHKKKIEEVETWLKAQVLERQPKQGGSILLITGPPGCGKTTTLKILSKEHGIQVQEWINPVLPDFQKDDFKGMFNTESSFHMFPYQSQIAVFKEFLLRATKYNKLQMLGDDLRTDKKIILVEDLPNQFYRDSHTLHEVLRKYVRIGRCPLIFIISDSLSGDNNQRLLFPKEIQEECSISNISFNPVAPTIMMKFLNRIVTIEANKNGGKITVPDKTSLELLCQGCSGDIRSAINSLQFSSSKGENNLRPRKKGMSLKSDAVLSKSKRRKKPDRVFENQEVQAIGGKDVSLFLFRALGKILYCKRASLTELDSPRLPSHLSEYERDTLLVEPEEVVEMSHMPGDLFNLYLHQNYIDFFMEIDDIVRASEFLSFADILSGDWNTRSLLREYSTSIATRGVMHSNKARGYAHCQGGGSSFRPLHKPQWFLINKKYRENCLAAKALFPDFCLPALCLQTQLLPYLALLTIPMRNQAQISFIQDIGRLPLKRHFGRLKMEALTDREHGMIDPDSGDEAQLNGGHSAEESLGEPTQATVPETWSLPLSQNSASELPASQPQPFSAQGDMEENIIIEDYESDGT
T2 sequence (P35250 whole entry, further chain): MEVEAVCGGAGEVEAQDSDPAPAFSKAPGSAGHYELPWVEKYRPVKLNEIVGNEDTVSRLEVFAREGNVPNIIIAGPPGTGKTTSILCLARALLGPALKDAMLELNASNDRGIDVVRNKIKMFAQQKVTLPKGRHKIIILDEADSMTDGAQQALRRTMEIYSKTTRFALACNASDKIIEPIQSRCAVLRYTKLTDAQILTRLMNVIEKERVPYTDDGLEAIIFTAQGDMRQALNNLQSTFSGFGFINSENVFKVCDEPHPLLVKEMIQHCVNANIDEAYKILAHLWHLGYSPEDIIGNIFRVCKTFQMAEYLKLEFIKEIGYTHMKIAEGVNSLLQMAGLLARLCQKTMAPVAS
T2 sequence (P40938 whole entry, further chain): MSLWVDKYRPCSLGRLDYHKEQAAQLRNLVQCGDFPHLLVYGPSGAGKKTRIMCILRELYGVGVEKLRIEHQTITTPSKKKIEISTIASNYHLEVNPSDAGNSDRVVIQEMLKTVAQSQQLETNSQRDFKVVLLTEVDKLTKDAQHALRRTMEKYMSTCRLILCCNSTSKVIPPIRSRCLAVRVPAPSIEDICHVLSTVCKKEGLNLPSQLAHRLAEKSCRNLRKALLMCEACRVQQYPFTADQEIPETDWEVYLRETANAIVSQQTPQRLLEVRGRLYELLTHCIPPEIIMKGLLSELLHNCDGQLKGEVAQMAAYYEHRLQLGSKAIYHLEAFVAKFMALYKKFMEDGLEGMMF
T2 sequence (P35249 whole entry, further chain): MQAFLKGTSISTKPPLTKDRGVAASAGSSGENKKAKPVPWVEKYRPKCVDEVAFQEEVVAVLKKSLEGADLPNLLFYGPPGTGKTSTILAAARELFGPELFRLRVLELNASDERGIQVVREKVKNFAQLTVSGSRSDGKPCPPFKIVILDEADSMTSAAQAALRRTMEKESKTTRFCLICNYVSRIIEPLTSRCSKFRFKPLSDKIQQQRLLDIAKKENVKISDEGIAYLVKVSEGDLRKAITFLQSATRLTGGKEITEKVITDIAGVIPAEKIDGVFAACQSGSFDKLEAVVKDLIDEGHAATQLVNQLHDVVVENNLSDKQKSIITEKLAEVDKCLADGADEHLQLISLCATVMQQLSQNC
T2 sequence (P40937 whole entry, further chain): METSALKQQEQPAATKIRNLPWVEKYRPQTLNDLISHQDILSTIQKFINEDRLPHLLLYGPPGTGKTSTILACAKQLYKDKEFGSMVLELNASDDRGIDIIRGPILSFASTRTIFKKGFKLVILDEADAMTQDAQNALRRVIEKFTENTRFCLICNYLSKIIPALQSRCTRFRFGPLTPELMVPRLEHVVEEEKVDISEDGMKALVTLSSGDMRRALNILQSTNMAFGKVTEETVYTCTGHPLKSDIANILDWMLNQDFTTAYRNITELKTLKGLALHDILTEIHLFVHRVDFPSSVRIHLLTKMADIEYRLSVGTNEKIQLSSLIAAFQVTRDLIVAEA
T1 sequence (P35251 whole entry): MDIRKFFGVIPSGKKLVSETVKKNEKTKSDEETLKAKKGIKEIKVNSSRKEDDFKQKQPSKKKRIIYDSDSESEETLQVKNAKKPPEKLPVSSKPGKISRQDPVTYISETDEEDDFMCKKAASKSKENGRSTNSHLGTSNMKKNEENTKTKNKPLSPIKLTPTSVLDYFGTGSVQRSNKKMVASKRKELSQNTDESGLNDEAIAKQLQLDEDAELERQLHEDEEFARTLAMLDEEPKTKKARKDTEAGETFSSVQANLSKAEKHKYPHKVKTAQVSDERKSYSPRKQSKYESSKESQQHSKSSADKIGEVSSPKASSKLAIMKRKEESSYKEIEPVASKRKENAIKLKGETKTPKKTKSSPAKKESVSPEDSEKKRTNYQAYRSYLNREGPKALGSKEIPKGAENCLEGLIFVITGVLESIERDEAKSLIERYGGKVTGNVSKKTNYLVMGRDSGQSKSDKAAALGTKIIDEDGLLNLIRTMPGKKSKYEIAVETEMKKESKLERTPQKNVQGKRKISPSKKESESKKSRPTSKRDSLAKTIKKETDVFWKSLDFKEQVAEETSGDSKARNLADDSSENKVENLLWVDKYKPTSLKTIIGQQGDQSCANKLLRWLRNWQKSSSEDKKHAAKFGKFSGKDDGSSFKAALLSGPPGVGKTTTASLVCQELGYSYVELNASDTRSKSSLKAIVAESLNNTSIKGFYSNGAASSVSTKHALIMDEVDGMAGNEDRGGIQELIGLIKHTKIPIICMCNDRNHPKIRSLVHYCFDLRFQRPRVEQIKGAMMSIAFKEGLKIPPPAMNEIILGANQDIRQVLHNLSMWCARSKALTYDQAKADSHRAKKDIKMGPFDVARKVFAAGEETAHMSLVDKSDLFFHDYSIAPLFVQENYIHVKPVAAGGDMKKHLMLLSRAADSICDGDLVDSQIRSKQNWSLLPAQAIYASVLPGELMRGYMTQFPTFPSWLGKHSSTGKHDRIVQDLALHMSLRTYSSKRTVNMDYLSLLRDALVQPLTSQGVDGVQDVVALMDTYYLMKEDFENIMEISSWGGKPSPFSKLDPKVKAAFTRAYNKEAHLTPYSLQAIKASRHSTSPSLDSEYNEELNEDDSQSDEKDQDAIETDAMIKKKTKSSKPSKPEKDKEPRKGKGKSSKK
T1 sequence (P35250 whole entry, further chain): as the sequence (P35250 whole entry, further chain) above
T1 sequence (P40938 whole entry, further chain): as the sequence (P40938 whole entry, further chain) above
T1 sequence (P35249 whole entry, further chain): as the sequence (P35249 whole entry, further chain) above
T1 sequence (P40937 whole entry, further chain): as the sequence (P40937 whole entry, further chain) above

With `Nc1ncnc2c1ncn2[C@@H]1O[C@H](COP(=O)(O)OP(=O)(O)OP(O)(O)=S)[C@@H](O)[C@H]1O` [ATPγS, adenosine 5′-O-3′-thiotriphosphate], the “bead pull-down of clamp-clamp loader-DNA ternary complex, Western blot” value is “ternary complex formation on both substrates in the presence of ATPγS was observed” in assay [1] and “in the presence of ATPγS ternary complex formation, but not clamp loading” in assay [2].
